Data set [1] is described as follows: Solubility of bases in propylene glycol monomethyl ether acetate (shaken overnight, visual inspection). As to conditions: for Solubility, 0.2 wt. % in PGMEA: 0.2 wt. % solution in propylene glycol monomethyl ether acetate, shaken ~20 hours at room temperature; for Solubility, 0.2 wt. % in PGMEA / Solubility, 0.1 wt. % in PGMEA: visual inspection; for Solubility, 0.1 wt. % in PGMEA: diluted to 0.10 wt. % in propylene glycol monomethyl ether acetate; for Solubility in the solvent of the photoresist (propylene glycol monomethyl ether acetate): concentration not given. Type of data set: physicochemical. The method, then:
Several bases were evaluated for solubility in propylene glycol monomethyl ether acetate, the most commonly used solvent in photoresist compositions. A 0.2 wt. % solution of each base was made with propylene glycol monomethyl ether acetate in glass vials. The vials were then placed on a shaker and allowed to shake overnight (˜20 hours) at room temperature. The vials were then visually inspected. If the vials were clear without any haze, cloudiness or solids or crystals at the bottom of the vial, then the base was considered soluble in propylene glycol monomethyl ether acetate. If the vials had haze, cloudiness or solids or crystals at the bottom of the vial, the base was considered not soluble in propylene glycol monomethyl ether acetate. For those vials which contained base at 0.2 wt. % and were considered not soluble, additional propylene glycol monomethyl ether acetate was added to dilute the solution to 0.15 wt. %, or 0.10 wt. %. The diluted vials were then evaluated as discussed above. No further dilutions were made beyond 0.10 wt. %.

Data set [2] can be described thus: Solubility of bases in the antireflective coating solvent 4-hydroxy-4-methyl-2-pentanone. Type of data set: physicochemical. The source says: For this experiment, base A is aminophylline, which is considered an insoluble base in the solvent of the photoresist (in this experiment, propylene glycol monomethyl ether acetate) but soluble in the solvent of the antireflective coating (in this experiment, 4-hydroxy-4-methyl-2-pentanone); base B is tridodecylamine, which is soluble in both the solvent of the photoresist (in this experiment, propylene glycol monomethyl ether acetate) and the solvent of the antireflective coating (in this experiment, 4-hydroxy-4-methyl-2-pentanone). The bases were evaluated alone or as mixtures in the antireflective coatings. The antireflective coatings were prepared using a co-polymer of benzyl methacrylate—mevalonic lactone methacrylate. The photoacid generator (PAG) was triphenylsulfonium nonaflate, and the aforementioned base(s) and 4-hydroxy-4-methyl-2-pentanone as the solvent completed the antireflective coating formulations. The PAG content was kept at 1.7 wt. % of total solids of the antireflective coating formulations and the antireflective coating formulations were 1.65% total solids.

This note sets out measurements from patent US20080032229A1, “BOTTOM ANTIREFLECTIVE COATINGS” (priority 2003, published 2008).

Where two headings read alike, the source gives them in different places.

For `Cn1c(=O)c2[nH]cnc2n(C)c1=O` [Theophylline, reference compound], in data set [1], the “Solubility, 0.2 wt. % in PGMEA” value was “Not soluble” and the “Solubility, 0.1 wt. % in PGMEA” value is “Soluble”.

Turning to `Cn1c(=O)c2[nH]cnc2n(C)c1=O` [Aminophylline, reference compound], the “Solubility in the solvent of the antireflective coating (4-hydroxy-4-methyl-2-pentanone)” value in data set [2] (concentration not given) is recorded as “soluble”. In addition, in data set [1], the “Solubility, 0.2 wt. % in PGMEA” value is “Not soluble”; the “Solubility in the solvent of the photoresist (propylene glycol monomethyl ether acetate)” value is “insoluble”; the “Solubility, 0.1 wt. % in PGMEA” value was “Not soluble”.

With `Nc1nc(N)c2[nH]cnc2n1` [2,6-Diaminopurine], in data set [1], the “Solubility, 0.2 wt. % in PGMEA” value is “Not soluble” and the “Solubility, 0.1 wt. % in PGMEA” value is recorded as “Not soluble”.

`c1ncc2[nH]cnc2n1` [Purine]: in data set [1], the “Solubility, 0.2 wt. % in PGMEA” value is listed as “Not soluble” and the “Solubility, 0.1 wt. % in PGMEA” value was “Not soluble”.

Regarding `Nc1nc2nc[nH]c2c(=O)[nH]1` [Guanine], in data set [1], the “Solubility, 0.2 wt. % in PGMEA” value is reported as “Not soluble” and the “Solubility, 0.1 wt. % in PGMEA” value is recorded as “Not soluble”.

In the case of `CCCCCCCCCCCCN(CCCCCCCCCCCC)CCCCCCCCCCCC` [tridodecylamine, reference compound], in data set [2], the “Solubility in the solvent of the antireflective coating (4-hydroxy-4-methyl-2-pentanone)” value is “soluble”. In data set [1], the “Solubility in the solvent of the photoresist (propylene glycol monomethyl ether acetate)” value was “soluble”.

For `Cn1c(=O)c2[nH]c(Cl)nc2n(C)c1=O` [8-Chlorotheophyllline], in data set [1], the “Solubility, 0.2 wt. % in PGMEA” value is “Not soluble” and the “Solubility, 0.1 wt. % in PGMEA” value is “Not soluble”.

Consider `CN(C)c1ncnc2nc[nH]c12` [6-(Dimethylamino)purine], for which, in data set [1], the “Solubility, 0.2 wt. % in PGMEA” value is “Not soluble” and the “Solubility, 0.1 wt. % in PGMEA” value was “Soluble”.

On to `Nc1ncnc2nc[nH]c12` [Adenine], for which, in data set [1], the “Solubility, 0.2 wt. % in PGMEA” value is “Not soluble” and the “Solubility, 0.1 wt. % in PGMEA” value is on record as “Not soluble”.
